Where a name gives a salt, the structure may show the parent alone. Read-outs that look alike come from different tables or passages of the source.
System: Mycobacterium tuberculosis H37Rv
Assay: Mycobacterium tuberculosis H37Rv Inhibition Assay (resazurin MIC)
Format: cell-based
[1] = 144 h, H37Rv strain, six days incubation, resazurin fluorescence after 48 hours, read-out: MIC value
[2] = read-out: MIC value, H37Rv strain, six days incubation, resazurin fluorescence after 48 hours
[3] = 144 h, read-out: MIC value, H37Rv strain, six days incubation, resazurin fluorescence after 48 hours

| SMILES | MIC [3] [µg/mL] | further results |
| --- | --- | --- |
| O=C1CSc2ccc(CNC3CCN(CC4Cn5c(=O)ccc6ccc(=O)n4c65)CC3)cc2N1 (racemic) [Example 12, 1-[(4-{[(3-Oxo-3,4-dihydro-2H-1,4-benzothiazin-6-yl)methyl]amino}-1-piperidinyl)methyl]-1,2-dihydro-4H,9H-imidazo[1,2,3-ij]-1,8-naphthyridine-4,9-dione hydrochloride (2:1 mixture of R:S)] |  | MIC [1]: < 2 µg/mL |
| O=c1ccc2ccc(=O)n3c2n1CC3CN1CCC(NCc2cc3c(cn2)OCCS3)CC1 (racemic) [Example 63] |  | MIC (H37Rv strain, six days incubation, resazurin fluorescence after 48 hours, read-out: MIC value): < 2 µg/mL |
| O=c1ccc2ccc(=O)n3c2n1CC3CN1CCC(NCc2cc3c(cn2)OCS3)CC1 (centres unmarked) [Example 2, 1-({4-[([1,3]Oxathiolo[5,4-c]pyridin-6-ylmethyl)amino]-1-piperidinyl}methyl)-1,2-dihydro-4H,9H-imidazo[1,2,3-ij]-1,8-naphthyridine-4,9-dione hydrochloride] |  | MIC [2]: < 2 µg/mL |
| O=c1ccc2ccc(=O)n3c2n1C[C@H]3CN1CCC(NCc2cc3c(cn2)OCS3)CC1 [Example 5A, (1R)-1-({4-[([1,3]Oxathiolo[5,4-c]pyridin-6-ylmethyl)amino]-1-piperidinyl}methyl)-1,2-dihydro-4H,9H-imidazo[1,2,3-ij]-1,8-naphthyridine-4,9-dione hydrochloride] | < 2 |  |
| O=c1ccc2ccc(=O)n3c2n1C[C@H]3CN1CCC(NCc2cc3c(cn2)OCCS3)CC1 [Example 6A, (1R)-1-({4-[(2,3-Dihydro[1,4]oxathiino[2,3-c]pyridin-7-ylmethyl)amino]-1-piperidinyl}methyl)-1,2-dihydro-4H,9H-imidazo[1,2,3-ij]-1,8-naphthyridine-4,9-dione hydrochloride] |  | MIC [2]: < 2 µg/mL |
| O=c1ccc2ccc(=O)n3c2n1C[C@H]3CN1CCC(NCc2cc3c(cn2)CCCC3)CC1 [Example 7, (1R)-1-({4-[(5,6,7,8-Tetrahydro-3-isoquinolinylmethyl)amino]-1-piperidinyl}methyl)-1,2-dihydro-4H,9H-imidazo[1,2,3-ij]-1,8-naphthyridine-4,9-dione hydrochloride] | < 2 |  |
| O=c1ccc2ccc(=O)n3c2n1C[C@H]3CN1CCC(NCc2cc3c(cn2)CCC3)CC1 [Example 8, (1R)-1-({4-[(6,7-Dihydro-5H-cyclopenta[c]pyridin-3-ylmethyl)amino]-1-piperidinyl}methyl)-1,2-dihydro-4H,9H-imidazo[1,2,3-ij]-1,8-naphthyridine-4,9-dione hydrochloride] | < 2 |  |
| O=c1cnc2ccc(=O)n3c2n1C[C@H]3CN1CCC(NCc2cc3c(cn2)OCS3)CC1 [Example 13A, (1R)-1-({4-[([1,3]Oxathiolo[5,4-c]pyridin-6-ylmethyl)amino]-1-piperidinyl}methyl)-1,2-dihydro-3H,8H-2a,5,8a-triazaacenaphthylene-3,8-dione hydrochloride] | < 2 |  |
| O=c1cnc2ccc(=O)n3c2n1C[C@H]3CN1CCC(NCc2cc3c(cn2)OCCS3)CC1 [Example 14, (1R)-1-({4-[(2,3-Dihydro[1,4]oxathiino[2,3-c]pyridin-7-ylmethyl)amino]-1-piperidinyl}methyl)-1,2-dihydro-3H,8H-2a,5,8a-triazaacenaphthylene-3,8-dione hydrochloride] | < 2 |  |
| O=c1ccc2ncc(=O)n3c2n1C[C@H]3CN1CCC(NCc2cc3c(cn2)OCS3)CC1 [Example 16A, (2R)-2-({4-[([1,3]Oxathiolo[5,4-c]pyridin-6-ylmethyl)amino]-1-piperidinyl}methyl)-1,2-dihydro-3H,8H-2a,5,8a-triazaacenaphthylene-3,8-dione hydrochloride] | < 2 |  |
| Cl.O=c1ccc2ncc(=O)n3c2n1C[C@H]3CN1CCC(NCc2cc3c(cn2)OCCS3)CC1 [Example 19A, (2R)-2-({4-[(2,3-Dihydro[1,4]oxathiino[2,3-c]pyridin-7-ylmethyl)amino]-1-piperidinyl}methyl)-1,2-dihydro-3H,8H-2a,5,8a-triazaacenaphthylene-3,8-dione hydrochloride] |  | MIC [1]: < 2 µg/mL |
